Read-outs that look alike come from different tables or passages of the source.
Legend:
[1] = system: human non-small-cell lung cancer cells (A549); assay: CCK-8 cell proliferation assay, A549; assay type: cell-based; conditions: 48 h, read-out: Inhibition rates (%) A549
Protocol: (§1) Initially, the target compounds were evaluated for antiproliferative activities against human non-small-cell lung cancer cells (A549), human breast cancer cells (MDA-MB-231), human esophageal cancer cells (KYSE30), and human colon cancer cells (HCT-116) at 5 μM. All of them were tested by the CCK-8 assay using 5-Fu as the positive control.
(§2) To investigate the effects of compounds on tumor cells’ proliferation, the cell proliferation assay was performed using the Cell Counting Kit-8 (#40203ES60, Yeasen, Shanghai, China). In brief, cells were seeded in a 96-well plate at 3 × 10^3 cells per well and cultured overnight. Then, the medium was replaced with fresh DMEM medium containing various concentrations of compounds or vehicle. After 48 h of incubation, the medium was exchanged with 100 μL of FBS-free DMEM medium supplemented with 10 μL of CCK8 added to each well and incubated at 37 °C for another 2 h. Absorbance at 450 nm was measured with a microplate reader (Thermo). The experiments were performed in triplicate. The mean ± SD values presented in the figures were calculated from three independent experiments. Comparisons between groups were evaluated using GraphPad Prism version 7.0 software. p < 0.05 was considered statistically significant.

[2] = system: human breast cancer cells (MDA-MB-231); assay: CCK-8 cell proliferation assay, MDA-MB-231; assay type: cell-based; conditions: 48 h, read-out: Inhibition rates (%) MDA-MB-231
Protocol: as §1, §2

[3] = system: human esophageal cancer cells (KYSE30); assay: CCK-8 cell proliferation assay, KYSE30; assay type: cell-based; conditions: KYSE-30, 48 h, read-out: Inhibition rates (%) KYSE30
Protocol: as §1, §2

[4] = system: human colon cancer cells (HCT-116); assay: CCK-8 cell proliferation assay, HCT-116; assay type: cell-based; conditions: for inhibition at 5 µM: read-out: Inhibition rates (%) HCT-116; for IC50: read-out: IC50 ± SD HCT116
Protocol: as §1
(§3) To further assess the antitumor activities of synthesized compounds against human colon cancer cells, the effects of each synthesized compound on the viability of two additional human colon cancer cells (SW620, DLD1) were evaluated, and normal human colonic epithelial cells (NCM460) were used as a control. It is obvious that all the synthesized compounds display potential antitumor activities against HCT116, DLD1, and SW620 cells. […] In addition, for SW620, the activities of most optimized compounds were slightly stronger than that of 5-Fu.
(§4) HCT116, SW620, and DLD1 were purchased from American Type Culture Collection (ATCC). SW620 and DLD1 were cultured in Dulbecco’s Modified Eagles medium (Thermo), and HCT116 was cultured in McCoy’s 5A medium (Thermo). All media were supplemented with 10% fetal bovine serum (Thermo) and 1% penicillin/streptomycin. All the cells were passaged at approximately 80% confluency. Cells were tested for mycoplasma every two months, and only mycoplasma-negative cells were used
as §2

[5] = system: human colon cancer cells (DLD1); assay: CCK-8 cell proliferation assay, DLD1; assay type: cell-based; conditions: read-out: IC50 ± SD DLD1
Protocol: as §3, §4, §2

[6] = system: human colon cancer cells (SW620); assay: CCK-8 cell proliferation assay, SW620; assay type: cell-based; conditions: read-out: IC50 ± SD SW620
Protocol: as §3, §4, §2

[7] = system: normal human colonic epithelial cells (NCM460); assay: CCK-8 cell proliferation assay, NCM460; assay type: cell-based; conditions: read-out: IC50 ± SD NCM460
Protocol: as §3, §2

[8] = system: CyclinD1, CDK6, CDK4, p-Rb in SW620 cells; assay: Immunoblot of cell-cycle regulatory proteins, SW620; assay type: cell-based, human; conditions: indicated concentrations, 48 h
Protocol: (§5) Additionally, flow cytometric analyses were performed to determine cell-cycle distribution, where 400 ng/mL of nocodazole was used to synchronize cells in G2/M phase.
(§6) When 80% confluency was reached, cells were seeded into a 6-well plate at 3 × 10^6 cells per well and allowed to attach overnight. Then, the cells were treated with different concentrations of TH12-10 or vehicle for 48 h. Cells were lysed in RIPA buffer (#89900, Thermo, Waltham, MA, USA) supplemented with protease inhibitor cocktail (#B14002, Bimake, Houston, TX, USA) on ice for 30 min and centrifuged at 12,000 rpm for 10 min at 4 °C. Protein concentration was determined by the BCA kit and equal amounts of lysates were separated by SDS-polyacrylamide gels, and transferred to nitrocellulose membranes (#HATF00010, Millipore, Burlington, MA, USA). Then, the membranes were blocked with 5% milk in TBST for 1 h and probed with the indicated antibodies. […]
(§7) Figure 3 TH12-10 blocks S phase entry. […] (D) Quantitative analysis of DLD1 cells in G1 phase as described in (C). […]

[9] = system: CyclinD1, CDK6, CDK4, p-Rb in DLD1 cells; assay: Immunoblot of cell-cycle regulatory proteins, DLD1; assay type: cell-based, human; conditions: indicated concentrations, 48 h
Protocol: as §5, §6, §7

[10] = system: CyclinD1, CDK6, CDK4, p-Rb in NCM460 cells; assay: Immunoblot of cell-cycle regulatory proteins, NCM460; assay type: cell-based, human; conditions: indicated concentrations, 48 h
Protocol: as §5, §6
Figure 4 The contribution of TH12-10 to the cell cycle. […] (D) Quantitative analysis of NCM460 cells in G1 phase as described in (C). […]

DLD1 cells = assay: Flow cytometric cell-cycle distribution, DLD1; assay type: cell-based, human; conditions: 6 h after nocodazole (400 ng/mL), flow cytometry
Protocol: as §5
Figure 3 TH12-10 blocks S phase entry. (A) Immunoblot analysis of Cyclin D1, CDK4, CDK6, and p-Rb in SW620 and DLD1 cells treated with indicated concentrations of TH12-10 for 48 h. (B) Densitometry analysis of indicated proteins as described in (A) was performed using Image J software. […] (D) Quantitative analysis of DLD1 cells in G1 phase as described in (C). All data are presented as means ± SD of three independent experiments. * p < 0.05, ** p < 0.01, *** p < 0.001. N.S., not significant. Differences were tested using one-way ANOVA (B) or the unpaired t-test with Welch’s correction (D).

[11] = NCM460, CCK-8, 48 h, normal colonic epithelial cells

Row | Compound | inhibition at 5 µM [1] | inhibition at 5 µM [2] | inhibition at 5 µM [3] | inhibition at 5 µM ([4]; HCT-116, 5 μM, CCK-8, 48 h) | IC50 ([4]; HCT-116, CCK-8, 48 h) | IC50 ([5]; DLD-1, CCK-8, 48 h) | IC50 ([6]; SW-620, CCK-8, 48 h) | IC50 [7, 11] | IC50 ([4]; HCT-116, 48 h) | inhibition at 5 µM ([4]; HCT-116, 48 h) | IC50 ([5]; DLD-1, 48 h) | IC50 ([6]; SW-620, 48 h) | IC50 ([7]; NCM460, 48 h) | expression of CyclinD1, CDK6, CDK4 and p-Rb [8] | expression of CyclinD1, CDK6, CDK4 and p-Rb [9] | expression of CyclinD1, CDK6, CDK4 and p-Rb [10] | percentage of cells in the G1 phase vs blank control (DLD1 cells)
1 | O=c1[nH]cc(F)c(=O)[nH]1 [5-Fu, 5-fluorouracil, reference compound] | 21.1 ± 1.79% | 26.6 ± 2.51% | 28 ± 2.27% | 74.5 ± 1.1% | 620 ± 20 nM | 7890 ± 750 nM | 2680 ± 10 nM | 13600 ± 590 nM |  |  |  |  |  |  |  |  | 
2 | COC1C2CC3C(C)(C)OC(CC=C(C)C(=O)O)(C2=O)C32Oc3c(CC=C(C)C)c4c(c(O)c3C(=O)C12)C=CC(C)(C)O4 (stereo not drawn) [TH12-1, Moreollic acid] | 18.38 ± 0.02% | -4.9 ± 0.04% | 20.76 ± 0.04% |  |  |  |  |  | 1710 ± 330 nM | 83.9 ± 1.1% | 1440 ± 290 nM | 1490 ± 370 nM | 3160 ± 320 nM |  |  |  | 
3 | COC1C2CC3C(C)(C)OC(CC=C(C)C(=O)N4CCCCC4)(C2=O)C32Oc3c(CC=C(C)C)c4c(c(O)c3C(=O)C12)C=CC(C)(C)O4 (stereo not drawn) [TH12-2] | 2.51 ± 4.32% | 0.14 ± 3.51% | 9.08 ± 2.44% | 86.1 ± 2.83% | 1190 ± 250 nM | 1390 ± 190 nM | 1150 ± 130 nM | 4730 ± 40 nM |  |  |  |  |  |  |  |  | 
4 | COC1C2CC3C(C)(C)OC(CC=C(C)C(=O)N4CCOCC4)(C2=O)C32Oc3c(CC=C(C)C)c4c(c(O)c3C(=O)C12)C=CC(C)(C)O4 (stereo not drawn) [TH12-3] | 11.6 ± 4.25% | 1.71 ± 1.66% | 10.6 ± 2.66% | 87.4 ± 2.49% | 1960 ± 200 nM | 2310 ± 230 nM | 1820 ± 330 nM | 4720 ± 30 nM |  |  |  |  |  |  |  |  | 
5 | COC1C2CC3C(C)(C)OC(CC=C(C)C(=O)N4CCSCC4)(C2=O)C32Oc3c(CC=C(C)C)c4c(c(O)c3C(=O)C12)C=CC(C)(C)O4 (stereo not drawn) [TH12-4] | 11.1 ± 5.41% | 3.13 ± 1.16% | 6.98 ± 1.99% | 16.3 ± 4.56% | 7620 ± 930 nM | 7890 ± 120 nM | 7260 ± 870 nM | 19900 ± 840 nM |  |  |  |  |  |  |  |  | 
6 | COC1C2CC3C(C)(C)OC(CC=C(C)C(=O)N4CCC(C)CC4)(C2=O)C32Oc3c(CC=C(C)C)c4c(c(O)c3C(=O)C12)C=CC(C)(C)O4 (stereo not drawn) [TH12-5] | 14.3 ± 2.84% | 0.69 ± 1.92% | 5.65 ± 3.77% |  |  |  |  |  | 2370 ± 630 nM | 85.5 ± 1.45% | 2490 ± 560 nM | 1970 ± 340 nM | 5110 ± 210 nM |  |  |  | 
7 | COC1C2CC3C(C)(C)OC(CC=C(C)C(=O)N4CCC(c5ccccc5)CC4)(C2=O)C32Oc3c(CC=C(C)C)c4c(c(O)c3C(=O)C12)C=CC(C)(C)O4 (stereo not drawn) [TH12-7] | 4.59 ± 1.27% | 2.99 ± 0.16% | -2.71 ± 0.83% | 87.1 ± 2.37% | 1520 ± 140 nM | 1450 ± 250 nM | 1310 ± 240 nM | 2970 ± 80 nM |  |  |  |  |  |  |  |  | 
8 | COC1C2CC3C(C)(C)OC(CC=C(C)C(=O)N4CCC(N5CCCC5)CC4)(C2=O)C32Oc3c(CC=C(C)C)c4c(c(O)c3C(=O)C12)C=CC(C)(C)O4 (stereo not drawn) [TH12-8] | 4.8 ± 0.63% | 4.32 ± 1.96% | 4.04 ± 1.5% | 87.6 ± 2.76% | 1000 ± 130 nM | 1050 ± 230 nM | 970 ± 100 nM | 2290 ± 10 nM |  |  |  |  |  |  |  |  | 
9 | CONC(=O)C(C)=CCC12OC(C)(C)C3CC(C1=O)C(OC)C1C(=O)c4c(O)c5c(c(CC=C(C)C)c4OC132)OC(C)(C)C=C5 (stereo not drawn) [TH12-9] | 8.54 ± 1.11% | -1.76 ± 0.43% | 4.49 ± 1.05% | 83.9 ± 2.07% | 1680 ± 260 nM | 1670 ± 700 nM | 1590 ± 440 nM | 1630 ± 20 nM |  |  |  |  |  |  |  |  | 
10 | COC1C2CC3C(C)(C)OC(CC=C(C)C(=O)N4CCS(=O)(=O)CC4)(C2=O)C32Oc3c(CC=C(C)C)c4c(c(O)c3C(=O)C12)C=CC(C)(C)O4 (stereo not drawn) [TH12-10] | 6.85 ± 2.16% | 8.09 ± 0.28% | 3.65 ± 2.44% | 88.1 ± 2.78% | 830 ± 100 nM | 1100 ± 190 nM | 790 ± 120 nM | 4080 ± 110 nM |  |  |  |  |  | significantly decreased | significantly decreased | no significant change | significantly higher

— PMC8846360, “Structural Optimization and Improving Antitumor Potential of Moreollic Acid from Gamboge” (Molecules, 2022)
